Key:
[1] = system: EZH2 promoter in EAhy926 endothelial cell line; assay: EZH2 promoter luciferase reporter assay; assay type: cell-based, human; conditions: EAhy926, 6 hours, EGF 25 ng/mL, VEGF 50 ng/mL
Procedure: Relative activity of the EZH2 promoter in the EAhy926 cell line was determined by luciferase reporter assay. Cells were transfected in low-serum medium (0.5% serum) with the firefly luciferase plasmid, either empty vector (pGL3-Basic) or the EZH2 promoter construct vector (EZH2prom-pGL3-Basic), in 12-well plates using Effectene® Transfection Reagent from Qiagen (Valencia, Calif.). Cells were then maintained in low-serum medium for 18 hours, washed in warm 1× phosphate-buffered saline (PBS), and treated in triplicate at 37° C. for 6 hours. Treatments included recombinant human (rh) EGF (EGF; 25 ng/mL; Invitrogen) and rhVEGF165 (VEGF; 50 ng/mL; Peprotech, Rocky Hill, N.J.), each in fresh medium plus 0.5% serum, fresh complete medium plus 10% serum, and conditioned media from immortalized ovarian surface epithelium (105E120) and from papillary serous ovarian cancer cell lines (OVCA420 and SKOV3). Medium in control wells (pGL3-Basic transfectants) was not changed on the day of treatment. Following treatment, cells were washed briefly in cold 1×PBS and lysates were collected and processed using the Dual-Luciferase® Reporter Assay System (Promega Corp.). Firefly luciferase readings were averaged and normalized to pGL3-Basic control readings for percent fold changes.

VASH1 mRNA in MOEC = assay: VASH1 mRNA after EZH2 gene silencing, real-time qRT-PCR; assay type: cell-based, mouse; conditions: 72 hours after transfection
Procedure: Relative expression of EZH2 and VASH1 mRNA in HUVEC and MOEC cells was determined by real-time quantitative RT-PCR. Cells were seeded at 1.0×10^4 cells per well in 96-well plates in complete medium and incubated at 37° C. for 24 hours, and then in low-serum medium (0.5% serum) for 18 hours, minus EGF and VEGF supplements where appropriate. After washing with warm PBS, cells were treated in triplicate at 37° C. for six hours with EGF (25 ng/mL) and VEGF (50 ng/mL), each in fresh medium (lacking supplemental EGF or VEGF) with no serum, fresh complete medium plus 2% serum, and conditioned media. Relative expression of VASH1 mRNA in MOEC cells was determined by transfecting cells with EZH2 mouse siRNA. Samples were collected after 72 hours of transfection. Real-time quantitative RT-PCR was performed using 50 ng total RNA isolated from treated cells using the RNeasy Mini Kit (Qiagen). Relative expression values were obtained using the average of three reference genes and the 2^−ΔΔCT method as described previously, and normalized to control for percent fold changes (Donninger et al., 2004).

Substance	EZH2 promoter activity [1]	increase in VASH1 mRNA compared to control siRNA treated cells (VASH1 mRNA in MOEC)
EGF: recombinant human EGF, Invitrogen (NSDSECPLSHDGYCLHDGVCMYIEALDKYACNCVVGYIGERCQYRDLKWWELR; Epidermal growth factor; UniProt P01133 971-1023, looked up)	significant increase	
VEGF	significant increase	
mouse EZH2 siRNA: Murine EZH2 siRNA, target 5′-GCACAAGTCATCCCGTTAATT-3′ (SEQ ID NO: 15), transfected in vitro (target site or template, no part of the molecule; listed as DNA, chemistry not given here)		2.8 fold

Reference: patent publication US20160375050A1, “METHODS AND COMPOSITIONS INVOLVING CHITOSAN NANOPARTICLES” (The Board of Regents of the University of Texas System, priority 2007, published 2016)
